Converted amounts (≈) assume the structure as drawn.
What was measured:
Assay in all cases: Broth microdilution MIC in iron-depleted CAMHB (IDM)
Type in all cases: cell-based
[1] = system: A. baumannii CDC-0036 OXA-65, and OXA-24; details: Acinetobacter baumannii, read-out: Minimum Inhibitory Concentration, CDC-0036
Outline: (§1)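 CLSI broth microdilution in iron-depleted CAMHB (Chelex 100-treated, Ca, Mg and 10 μM Zn re-added, pH 7.3). Inoculum was 2-8×10^5 CFU/mL from 3-5 h IDM cultures. Plates were incubated at 37° C for 20-24 h (Acinetobacter) or 16-20 h (Pseudomonas), and MIC was read visually as the lowest concentration without growth.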

[2] = system: A. baumannii CDC-0083 producing NDM-1, PER-7, OXA-23, and OXA-69; details: Acinetobacter baumannii, read-out: Minimum Inhibitory Concentration, CDC-0083
Outline: as §1

[3] = system: P. aeruginosa CDC-0054 producing VIM-4, OXA-50, and PAO; details: Pseudomonas aeruginosa, read-out: Minimum Inhibitory Concentration, P. aeruginosa CDC-0054
Outline: as §1

[4] = system: P. aeruginosa CDC-0090 producing KPC-5, OXA-50, and PAO; details: Pseudomonas aeruginosa, read-out: Minimum Inhibitory Concentration, P. aeruginosa CDC-0090
Outline: as §1

[5] = system: P. aeruginosa (ΔmexAB-oprM); details: Pseudomonas aeruginosa, read-out: Minimum Inhibitory Concentration, P. aeruginosa ΔmexAB-OprM
Outline: as §1

[6] = system: P. aeruginosa ATCC 27853; details: Pseudomonas aeruginosa, ATCC27853, read-out: Minimum Inhibitory Concentration, P. aeruginosa ATCC 27853
Outline: as §1

[7] = system: A. baumannii IL123 (ABΔ3-ARAEcPore); details: Acinetobacter baumannii, read-out: Minimum Inhibitory Concentration, IL-2123
Outline: as §1

[8] = system: A. baumannii CDC-0033 producing NDM-1, and OXA-94; details: Acinetobacter baumannii, read-out: Minimum Inhibitory Concentration, CDC-0033
Outline: as §1

[9] = system: A. baumannii ATCC 17978; details: Acinetobacter baumannii, ATCC17978, read-out: Minimum Inhibitory Concentration, ATCC 17978
Outline: as §1

[10] = system: P. aeruginosa ATCC 35151; details: Pseudomonas aeruginosa, ATCC35151; iron-depleted MHB (IDM); hyper-permeable strain; read-out: Minimum Inhibitory Concentration, P. aeruginosa ATCC 35151
Outline: as §1

[11] = system: A. baumannii ATCC 19606; details: Acinetobacter baumannii, ATCC19606, read-out: Minimum Inhibitory Concentration, ATCC 19606
Outline: as §1

[12] = system: P. aeruginosa CDC-0095 producing OXA-50, and PAO; details: Pseudomonas aeruginosa, read-out: Minimum Inhibitory Concentration, P. aeruginosa CDC-0095
Outline: as §1

[13] = system: A. baumannii CDC-0045 producing TEM-1D, OXA-23, and OXA-69; details: Acinetobacter baumannii, read-out: Minimum Inhibitory Concentration, CDC-0045
[14] = system: P. aeruginosa CDC-0110; details: Pseudomonas aeruginosa, CDC0110, read-out: Minimum Inhibitory Concentration, P. aeruginosa CDC-0110
Outline: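 MIC is the lowest well showing no visible growth after 16-20 h at 37 °C, starting from 2-8×10^5 CFU/mL in 2-fold serial compound dilutions. Medium: cation-adjusted Mueller Hinton broth iron-depleted with Chelex 100, supplemented back with Ca, Mg and Zn, pH 7.3; CLSI protocol.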

SMILES | MIC [1] [mg/L] | MIC [2] [mg/L] | MIC [3] [mg/L] | MIC [4] [mg/L] | MIC [5] [mg/L] | MIC [6] [mg/L] | MIC [7] [mg/L] | MIC [8] [mg/L] | MIC [9] [mg/L] | MIC [10] [mg/L] | MIC [11] [mg/L] | MIC [12] [mg/L] | MIC [13] [mg/L] | MIC [14] [mg/L]
NCCN1CCN(C(=O)N[C@@H](C(=O)N[C@H]2Cc3ccc(F)c(C(=O)O)c3OB2O)c2c(F)cc(O)c(O)c2F)C(=O)C1=O (single isomer, unassigned) [Example 40] | 2 to 4 (≈ 3.28 to 6.57 µM) | 0.5 to 1 (≈ 0.821 to 1.64 µM) | 8 to 16 (≈ 13.1 to 26.3 µM) | 8 to 16 (≈ 13.1 to 26.3 µM) | 0.25 (≈ 0.41 µM) | 2 to 4 (≈ 3.28 to 6.57 µM) | 8 to 16 (≈ 13.1 to 26.3 µM) | 2 to 4 (≈ 3.28 to 6.57 µM) | 0.25 (≈ 0.41 µM) | 0.25 (≈ 0.41 µM) | 0.5 to 1 (≈ 0.821 to 1.64 µM) | 2 to 4 (≈ 3.28 to 6.57 µM) | 2 to 4 (≈ 3.28 to 6.57 µM) | 2 to 4 (≈ 3.28 to 6.57 µM)
NCCCN1CCN(C(=O)N[C@@H](C(=O)N[C@H]2Cc3ccc(F)c(C(=O)O)c3OB2O)c2c(F)cc(O)c(O)c2F)C(=O)C1=O (single isomer, unassigned) [Example 41] | 2 to 4 (≈ 3.21 to 6.42 µM) | 0.5 to 1 (≈ 0.802 to 1.6 µM) | 2 to 4 (≈ 3.21 to 6.42 µM) | 0.25 (≈ 0.401 µM) | 0.25 (≈ 0.401 µM) | 2 to 4 (≈ 3.21 to 6.42 µM) | 2 to 4 (≈ 3.21 to 6.42 µM) | 2 to 4 (≈ 3.21 to 6.42 µM) | 0.25 (≈ 0.401 µM) | 0.25 (≈ 0.401 µM) | 0.5 to 1 (≈ 0.802 to 1.6 µM) | 2 to 4 (≈ 3.21 to 6.42 µM) | 0.5 to 1 (≈ 0.802 to 1.6 µM) | 2 to 4 (≈ 3.21 to 6.42 µM)
O=C(O)c1ccc(C(NC(=O)c2ccc(O)c(O)c2Cl)C(=O)N[C@H]2Cc3cccc(C(=O)O)c3OB2O)cc1F (stereo partly drawn) [Example 7, (3R)-3-(2-(4-carboxy-3-fluorophenyl)-2-(2-chloro-3,4-dihydroxybenzamido)acetamido)-2-hydroxy-3,4-dihydro-2H-benzo[e][1,2]oxaborinine-8-carboxylic acid] | 32 to 64 (≈ 55.9 to 112 µM) | 32 to 64 (≈ 55.9 to 112 µM) | 2 to 4 (≈ 3.49 to 6.98 µM) | 0.5 to 1 (≈ 0.873 to 1.75 µM) | 0.25 (≈ 0.437 µM) | 2 to 4 (≈ 3.49 to 6.98 µM) | 32 to 64 (≈ 55.9 to 112 µM) | 32 to 64 (≈ 55.9 to 112 µM) | 2 to 4 (≈ 3.49 to 6.98 µM) | 0.25 (≈ 0.437 µM) | 32 to 64 (≈ 55.9 to 112 µM) | 8 to 16 (≈ 14 to 27.9 µM) | 32 to 64 (≈ 55.9 to 112 µM) | 2 to 4 (≈ 3.49 to 6.98 µM)
O=C(NC(C(=O)N[C@H]1Cc2ccc(F)c(C(=O)O)c2OB1O)c1ncc(O)cc1F)c1ccc(O)c(O)c1Cl (stereo partly drawn) [Example 8, (3R)-3-(2-(2-chloro-3,4-dihydroxybenzamido)-2-(3-fluoro-5-hydroxypyridin-2-yl)acetamido)-7-fluoro-2-hydroxy-3,4-dihydro-2H-benzo[e][1,2]oxaborinine-8-carboxylic acid] | 32 to 64 (≈ 56.8 to 114 µM) | 32 to 64 (≈ 56.8 to 114 µM) | 2 to 4 (≈ 3.55 to 7.1 µM) | 0.25 (≈ 0.444 µM) | 2 to 4 (≈ 3.55 to 7.1 µM) | 0.5 to 1 (≈ 0.887 to 1.77 µM) | 32 to 64 (≈ 56.8 to 114 µM) | 32 to 64 (≈ 56.8 to 114 µM) | 2 to 4 (≈ 3.55 to 7.1 µM) | 0.25 (≈ 0.444 µM) | 32 to 64 (≈ 56.8 to 114 µM) | 2 to 4 (≈ 3.55 to 7.1 µM) | 32 to 64 (≈ 56.8 to 114 µM) | 0.5 to 1 (≈ 0.887 to 1.77 µM)
O=C(Nc1ccc(O)c(O)c1Cl)NC(C(=O)N[C@H]1Cc2ccc(F)c(C(=O)O)c2OB1O)c1ncc(O)cc1F (stereo partly drawn) [Example 9, (3R)-3-(2-(3-(2-chloro-3,4-dihydroxyphenyl)ureido)-2-(3-fluoro-5-hydroxypyridin-2-yl)acetamido)-7-fluoro-2-hydroxy-3,4-dihydro-2H-benzo[e][1,2]oxaborinine-8-carboxylic acid] | 32 to 64 (≈ 55.3 to 111 µM) | 32 to 64 (≈ 55.3 to 111 µM) | 32 to 64 (≈ 55.3 to 111 µM) | 32 to 64 (≈ 55.3 to 111 µM) | 0.5 to 1 (≈ 0.864 to 1.73 µM) | 8 to 16 (≈ 13.8 to 27.6 µM) | 32 to 64 (≈ 55.3 to 111 µM) | 32 to 64 (≈ 55.3 to 111 µM) | 32 to 64 (≈ 55.3 to 111 µM) | 0.25 (≈ 0.432 µM) | 32 to 64 (≈ 55.3 to 111 µM) | 32 to 64 (≈ 55.3 to 111 µM) | 32 to 64 (≈ 55.3 to 111 µM) | 32 to 64 (≈ 55.3 to 111 µM)
O=C(NC(C(=O)N[C@H]1Cc2ccc(F)c(C(=O)O)c2OB1O)c1ncc(O)cc1F)c1c(F)cc(O)c(O)c1Cl (stereo partly drawn) [Example 10, (3R)-3-(2-(2-chloro-6-fluoro-3,4-dihydroxybenzamido)-2-(3-fluoro-5-hydroxypyridin-2-yl)acetamido)-7-fluoro-2-hydroxy-3,4-dihydro-2H-benzo[e][1,2]oxaborinine-8-carboxylic acid] | 32 to 64 (≈ 55 to 110 µM) | 32 to 64 (≈ 55 to 110 µM) | 2 to 4 (≈ 3.44 to 6.88 µM) | 0.5 to 1 (≈ 0.86 to 1.72 µM) | 0.5 to 1 (≈ 0.86 to 1.72 µM) | 0.5 to 1 (≈ 0.86 to 1.72 µM) | 32 to 64 (≈ 55 to 110 µM) | 32 to 64 (≈ 55 to 110 µM) | 32 to 64 (≈ 55 to 110 µM) | 0.25 (≈ 0.43 µM) | 32 to 64 (≈ 55 to 110 µM) | 2 to 4 (≈ 3.44 to 6.88 µM) | 32 to 64 (≈ 55 to 110 µM) | 0.5 to 1 (≈ 0.86 to 1.72 µM)
CCN1CCN(C(=O)NC(C(=O)N[C@H]2Cc3ccc(F)c(C(=O)O)c3OB2O)c2c(F)cc(O)c(O)c2F)C(=O)C1=O (stereo partly drawn) [Example 36, (3R)-3-(2-(2,6-difluoro-3,4-dihydroxyphenyl)-2-(4-ethyl-2,3-dioxopiperazine-1-carboxamido)acetamido)-7-fluoro-2-hydroxy-3,4-dihydro-2H-benzo[e][1,2]oxaborinine-8-carboxylic acid] | 0.5 to 1 (≈ 0.841 to 1.68 µM) | 0.25 (≈ 0.421 µM) | 0.5 to 1 (≈ 0.841 to 1.68 µM) | 0.5 to 1 (≈ 0.841 to 1.68 µM) | 0.25 (≈ 0.421 µM) | 0.5 to 1 (≈ 0.841 to 1.68 µM) | 0.5 to 1 (≈ 0.841 to 1.68 µM) | 0.5 to 1 (≈ 0.841 to 1.68 µM) | 0.25 (≈ 0.421 µM) | 0.25 (≈ 0.421 µM) | 0.25 (≈ 0.421 µM) | 8 to 16 (≈ 13.5 to 26.9 µM) | 0.25 (≈ 0.421 µM) | 0.5 to 1 (≈ 0.841 to 1.68 µM)
O=C(O)c1c(F)ccc2c1OB(O)[C@@H](NC(=O)C(NC(=O)N1CCN(CCF)C(=O)C1=O)c1c(F)cc(O)c(O)c1F)C2 (stereo partly drawn) [Example 37, (3R)-3-(2-(2,6-difluoro-3,4-dihydroxyphenyl)-2-(4-(2-fluoroethyl)-2,3-dioxopiperazine-1-carboxamido)acetamido)-7-fluoro-2-hydroxy-3,4-dihydro-2H-benzo[e][1,2]oxaborinine-8-carboxylic acid] | 2 to 4 (≈ 3.27 to 6.53 µM) | 0.5 to 1 (≈ 0.817 to 1.63 µM) | 2 to 4 (≈ 3.27 to 6.53 µM) | 2 to 4 (≈ 3.27 to 6.53 µM) | 0.25 (≈ 0.408 µM) | 2 to 4 (≈ 3.27 to 6.53 µM) | 2 to 4 (≈ 3.27 to 6.53 µM) | 2 to 4 (≈ 3.27 to 6.53 µM) | 0.25 (≈ 0.408 µM) | 0.25 (≈ 0.408 µM) | 0.25 (≈ 0.408 µM) | 8 to 16 (≈ 13.1 to 26.1 µM) | 0.5 to 1 (≈ 0.817 to 1.63 µM) | 0.5 to 1 (≈ 0.817 to 1.63 µM)

Reference: patent publication US20230114728A1 (Venatorx Pharmaceuticals, Inc., priority 2019, published 2023)
